According to patent US20130071933A1, “CITRUS SHOOT REGENERATION COMPOSITIONS, METHODS, AND SYSTEMS” (priority 2011, published 2013):
“Also recorded” adds a separate entry of the source.

Experiments:
[1] = system: mature internodal stem segments of sweet orange cv. Hamlin; test: Culture of explants on DBA3 medium with surfactant: fresh weight and shoot regeneration; format: cell-based, Citrus sinensis; details: for % Organogenic explants / Total shoot yield: 60 explants/treatment
Procedure: Mature budwood collected from C. sinensis cv. Hamlin from virus-free greenhouse material were grafted onto seedlings of rough lemon (C. jambhiri Lush.) and maintained in a greenhouse (20-27° C.). The developing shoots were allowed to grow as one, two and three flushes, each used separately for experimental studies. Shoots (approx. 20 cm in length) were pruned from each plant and used for explant preparation. The stems were stripped of their thorns and leaves, surface-sterilized in 70% ethanol (1 min), disinfected for 20 min in 20% (v/v) domestic bleach solution containing 0.2% (v/v) Tween® 20 and washed five times with sterile distilled water. Internodal stem explants were cut transversely into 1 cm long segments and placed horizontally onto the culture media with the cut ends submerged (approx. 2 mm) into the medium. […] The non-ionic surfactants were dissolved in sterile-distilled water and then filter-sterilized before adding to the medium after autoclaving, along with filter-sterilized Gamborg B5 vitamins and de-proteinized coconut water. Cultures were maintained in the light (60 μm m^−2s^−1 cool light fluorescent tubes) under a 16 h photoperiod at 28±2° C. and subcultured at 21-28 d intervals. After 10 weeks, the weight of each explant and the number of adventitious shoots was recorded. This experiment was repeated for each of the first three flushes of shoots to compare growth and shoot regeneration efficiencies.

[2] = system: shoots regenerated from mature stem segments of sweet orange cv. Hamlin; test: Grafting of regenerated adventitious shoots onto rough lemon rootstock: survival and growth; format: in vivo, Citrus sinensis
Source text: Adventitious shoots (0.5 cm long) were excised from mature stem segments and grafted in vivo onto rough lemon seedlings. Briefly, rough lemon seedlings (approx. 25-30 cm in height) were decapitated (approx. 15 cm above ground) where the diameter of the stem equals the width of the shoot (2-3 mm). A 5 mm deep longitudinal cut is made into the cambium layer of the seedling into which the shoot is wedged and the grafted area sealed with Parafilm. The shoot is wounded, each side, by removing approx. 1 mm of the surface with a scalpel blade in the same plane as the exposed cambium layer to promote growth of the new shoot. The whole plant is covered with a clear plastic bag and maintained in the light (100 μm^−2s^−1 cool light fluorescent tubes) under a 16 h photoperiod at 22-24° C. After approx. 21 d, the grafted shoot starts to grow and the bag is gradually opened to aid acclimatization. The plant is then transferred to the greenhouse approx. 28 d later and allowed to grow to maturity.
Shoots (approx. 1 cm in length) were excised from explants and grafted onto a rough lemon rootstock to allow growth and development. […] This phenotype of growth and development is typical of a mature citrus tree as observed in previous studies on the tissue culture of mature internodal stem segments (Cervera et al., 1998, Transgenic Res 7: 51-59).

[3] = system: cotyledonary explants of Jute; details: cited from earlier work
[4] = Flush 1, surfactant 0.001%, 10 weeks of culture
[5] = Flush 1, surfactant 0.01%, 10 weeks of culture
[6] = Flush 1, surfactant 0.1%, 10 weeks of culture
[7] = Flush 1, surfactant 0.5%, 10 weeks of culture
[8] = Flush 2, surfactant 0.001%, 10 weeks of culture
[9] = Flush 2, surfactant 0.01%, 10 weeks of culture
[10] = Flush 2, surfactant 0.1%, 10 weeks of culture
[11] = Flush 2, surfactant 0.5%, 10 weeks of culture
[12] = Flush 3, surfactant 0.001%, 10 weeks of culture
[13] = Flush 3, surfactant 0.01%, 10 weeks of culture
[14] = Flush 3, surfactant 0.1%, 10 weeks of culture
[15] = Flush 3, surfactant 0.5%, 10 weeks of culture
[16] = shoots from explants cultured at 0.001-0.1% (v/v), rough lemon rootstock

polyethylene glycol p-(1,1,3,3-tetramethylbutyl)-phenyl ether [Triton® X-100]
Mean fresh weight ([1]; 0.001% (v/v) in DBA3, first flush): 347±24 mg f. wt.
number of shoots per explant and number of explants giving shoots compared to the control ([1]; 0.001% (v/v) in DBA3, first two flushes): lower compared to the control
Mean fresh weight ([1]; 0.001% (v/v) in DBA3, second flush): 309±23 mg f. wt.
fresh weight gain, number of shoots per explant and number giving shoots compared to DBA3 without surfactant ([1]; 0.1-0.5% (v/v) in DBA3): significantly (P<0.05) reduced
shoot regeneration ([1]; 0.5% (v/v) in DBA3): failed to regenerate shoots
Mean fresh weight [1, 4]: 347 ± 24 mg
Mean number of shoots per explant [1, 4]: 0.13 ± 0.06
% Organogenic explants [1, 4]: 10%
Total shoot yield [1, 4]: 8
Mean fresh weight [1, 5]: 254 ± 13 mg
Mean number of shoots per explant [1, 5]: 0.18 ± 0.07
% Organogenic explants [1, 5]: 13.5%
Total shoot yield [1, 5]: 11
Mean fresh weight [1, 6]: 153 ± 7 mg
Mean number of shoots per explant [1, 6]: 0.08 ± 0.04
% Organogenic explants [1, 6]: 6.5%
Total shoot yield [1, 6]: 5
Mean fresh weight [1, 7]: 75 ± 3 mg
Mean number of shoots per explant [1, 7]: 0.00 ± 0.00
% Organogenic explants [1, 7]: 0%
Total shoot yield [1, 7]: 0
Mean fresh weight [1, 8]: 309 ± 23 mg
Mean number of shoots per explant [1, 8]: 0.07 ± 0.03
% Organogenic explants [1, 8]: 6.5%
Total shoot yield [1, 8]: 4
Mean fresh weight [1, 9]: 264 ± 14 mg
Mean number of shoots per explant [1, 9]: 0.10 ± 0.05
% Organogenic explants [1, 9]: 6.5%
Total shoot yield [1, 9]: 6
Mean fresh weight [1, 10]: 158 ± 7 mg
Mean number of shoots per explant [1, 10]: 0.05 ± 0.03
% Organogenic explants [1, 10]: 5%
Total shoot yield [1, 10]: 3
Mean fresh weight [1, 11]: 85 ± 4 mg
Mean number of shoots per explant [1, 11]: 0.00 ± 0.00
% Organogenic explants [1, 11]: 0%
Total shoot yield [1, 11]: 0
Mean fresh weight [1, 12]: 135 ± 7 mg
Mean number of shoots per explant [1, 12]: 0.08 ± 0.04
% Organogenic explants [1, 12]: 6.5%
Total shoot yield [1, 12]: 5
Mean fresh weight [1, 13]: 126 ± 6 mg
Mean number of shoots per explant [1, 13]: 0.02 ± 0.02
% Organogenic explants [1, 13]: 1.5%
Total shoot yield [1, 13]: 1
Mean fresh weight [1, 14]: 89 ± 3 mg
Mean number of shoots per explant [1, 14]: 0.00 ± 0.00
% Organogenic explants [1, 14]: 0%
Total shoot yield [1, 14]: 0
Mean fresh weight [1, 15]: 61 ± 8 mg
Mean number of shoots per explant [1, 15]: 0.00 ± 0.00
% Organogenic explants [1, 15]: 0%
Total shoot yield [1, 15]: 0
shoots survived / shoots grafted [2, 16]: 5/15
survival rate of shoots following grafting [2, 16]: 33%
growth of explants ([3]; 0.001% (v/v)): increased also the growth
state of shoots after transfer to shoot elongation medium ([3]; 0.001%, after 14-21 days): became necrotic
shoot regeneration of jute cotyledons [3]: able to promote shoot regeneration
growth and regeneration of explants ([3]; concentrations above 0.001% (v/v)): inhibited the growth and regeneration

polyoxyethylene (20) sorbitan monolaurate [Tween® 20]
Mean fresh weight [1, 4]: 273 ± 15 mg
Mean number of shoots per explant [1, 4]: 0.23 ± 0.08
% Organogenic explants [1, 4]: 15%
Total shoot yield [1, 4]: 14
Mean fresh weight [1, 5]: 218 ± 12 mg
Mean number of shoots per explant [1, 5]: 0.25 ± 0.07
% Organogenic explants [1, 5]: 18.5%
Total shoot yield [1, 5]: 15
Mean fresh weight [1, 6]: 269 ± 13 mg
Mean number of shoots per explant [1, 6]: 0.31 ± 0.08
% Organogenic explants [1, 6]: 23%
Total shoot yield [1, 6]: 19
Mean fresh weight [1, 7]: 253 ± 12 mg
Mean number of shoots per explant [1, 7]: 0.18 ± 0.06
% Organogenic explants [1, 7]: 15%
Total shoot yield [1, 7]: 11
Mean fresh weight [1, 8]: 240 ± 15 mg
Mean number of shoots per explant [1, 8]: 0.22 ± 0.07
% Organogenic explants [1, 8]: 15%
Total shoot yield [1, 8]: 13
Mean fresh weight [1, 9]: 260 ± 13 mg
Mean number of shoots per explant [1, 9]: 0.20 ± 0.07
% Organogenic explants [1, 9]: 13.5%
Total shoot yield [1, 9]: 12
Mean fresh weight [1, 10]: 302 ± 19 mg
Mean number of shoots per explant [1, 10]: 0.22 ± 0.07
% Organogenic explants [1, 10]: 17%
Total shoot yield [1, 10]: 13
Mean fresh weight [1, 11]: 250 ± 13 mg
Mean number of shoots per explant [1, 11]: 0.17 ± 0.06
% Organogenic explants [1, 11]: 13.5%
Total shoot yield [1, 11]: 10
Mean fresh weight [1, 12]: 193 ± 8 mg
Mean number of shoots per explant [1, 12]: 0.07 ± 0.03
% Organogenic explants [1, 12]: 7%
Total shoot yield [1, 12]: 4
Mean fresh weight [1, 13]: 161 ± 7 mg
Mean number of shoots per explant [1, 13]: 0.05 ± 0.03
% Organogenic explants [1, 13]: 5%
Total shoot yield [1, 13]: 3
Mean fresh weight [1, 14]: 155 ± 7 mg
Mean number of shoots per explant [1, 14]: 0.08 ± 0.04
% Organogenic explants [1, 14]: 8.5%
Total shoot yield [1, 14]: 5
Mean fresh weight [1, 15]: 130 ± 6 mg
Mean number of shoots per explant [1, 15]: 0.05 ± 0.03
% Organogenic explants [1, 15]: 5%
Total shoot yield [1, 15]: 3
weight of explants compared to medium without surfactant ([1]; all three flushes of growth): no significant difference
growth of vitrified shoots following grafting ([2]; shoots from explants cultured on DBA3 with surfactant (0.01-0.5% (v/v))): failed to graft successfully in vivo; also recorded: all failed to initiate growth following grafting
fresh weight gain ([3]; 0.001-0.01% (v/v)): significantly increased
number of regenerants ([3]; 0.001-0.01% (v/v)): significantly increased
growth ([3]; 0.5% (v/v)): inhibitory to growth
shoot production ([3]; 0.5% (v/v)): inhibited
shoot regeneration of jute cotyledons [3]: able to promote shoot regeneration
